Measured values from paper PMC10988762, “Inhibition of malaria and babesiosis parasites by putative red blood cell targeting small molecules” (Frontiers in Cellular and Infection Microbiology, 2024).
Like-named read-outs stand apart in the source and are kept apart here. Marks after values point to notes of the source that are not given here.

Experiments:
[1] = tested on: P. falciparum strain 3D7; assay: Inhibitor susceptibility dose-response assay (SYBR-Green I), P. falciparum 3D7; type: cell-based, Plasmodium falciparum; settings: Plasmodium falciparum, read-out: IC50 (S.D.), P. falciparum-3D7
Description: (§1) The P. falciparum strains 3D7 and Dd2 were obtained from the Walter and Eliza Hall Institute (Melbourne, Australia) and the Malaria Research and Reference Reagent Resource, respectively. […] B. divergens parasites were maintained and assayed in mixed stages without synchronization.
(§2) Ring-stage P. falciparum (1%-parasitemia starting, 1%-hematocrit) and asynchronous B.divergens (0.5%-parasitemia starting, 3%-hematocrit) were incubated with plated compounds for 72h, and ring-stage P. knowlesi (1%-parasitemia starting, 1%-hematocrit) for 48h, before lysis and staining with dye. To quantify the species-specificity of the inhibitors, we divided the range of IC50s across the 4 test lines by the average IC50 across the same lines: inhibitors with increased scores show species-specific activity and reduced scores indicate broad-spectrum, pan-species activity.

[2] = tested on: P. falciparum strain Dd2; assay: Inhibitor susceptibility dose-response assay (SYBR-Green I), P. falciparum Dd2; type: cell-based, Plasmodium falciparum; settings: Plasmodium falciparum, read-out: IC50 (S.D.), P. falciparum-Dd2
Description: as §1, §2

[3] = tested on: P. knowlesi YH1 strain; assay: microbe, parasite or virus in culture; type: cell-based, Plasmodium knowlesi; settings: Plasmodium knowlesi, 48 h, read-out: IC50 (S.D.), P. knowlesi
Description: as §1, §2

[4] = tested on: BdC9 line of B. divergens; assay: Inhibitor susceptibility dose-response assay (SYBR-Green I), B. divergens; type: cell-based, Babesia divergens; settings: for IC50: Babesia divergens, read-out: IC50 (S.D.), B. divergens; for fold higher doses required for 50% inhibition of B. divergens than of the Plasmodium spp. lines: B. divergens vs Plasmodium spp. lines
Description: as §1, §2

[5] = tested on: K562; parameters: method as in PMID 19662183; settings: cellular proliferation ref PMID 19662183; read-out: Micromolar IC50 (K562); cited from earlier work
[6] = tested on: 293T; parameters: method as in PMID 19662183; settings: cellular proliferation ref PMID 19662183; read-out: Micromolar IC50 (293T); cited from earlier work
[7] = in vitro; settings: human
From the text: (§3) We analyzed samples using a volumetric MACSQuant Analyzer Flow Cytometer (Miltenyi Biotec), manually resuspending each row immediately prior to sample uptake. We recorded 10,000 total events for each condition at the instrument-defined low flow rate. We assessed all compounds in 2 separate experiments with blood from different donors. […] All samples were gated for single cell events.

[8] = tested on: uninfected RBCs; assay: Cellular phosphatidylserine exposure assay (annexin V flow cytometry);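 further: flow cytometry recording 10,000 events per condition, gated on single cells, with the two experiments using blood from separate donors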
From the text: as §3

[9] = tested on: Plasmodium spp. lines; assay: Inhibitor susceptibility assays, summary over the Plasmodium spp. lines; type: cell-based; settings: for antiparasitic activity in vitro, in words, Plasmodium spp.: Plasmodium spp. parasites; for IC50: approximate value given in text for the Plasmodium spp. lines, read-out: IC50 against the Plasmodium spp. lines
From the text: The P. falciparum strains 3D7 and Dd2 were obtained from the Walter and Eliza Hall Institute (Melbourne, Australia) and the Malaria Research and Reference Reagent Resource, respectively. The P. knowlesi YH1 strain adapted for growth in human erythrocytes and the BdC9 line of B. divergens were previously reported ([Lim et al., 2013]; [Rezvani et al., 2022]). All parasite lines were maintained in continuous culture in human erythrocytes O+ purchased from a commercial source (Research Blood Components, Boston USA) in RPMI-1640 medium as described (eg [Rezvani et al., 2022]), typically at 2%-hematocrit. Plasmodium parasites were synchronized using sorbitol (5% [wt/vol] for both P. falciparum and P. knowlesi; for P. knowlesi, with addition of 20 mM Na-HEPES and 0.1 mg/ml BSA) ([Lambros and Vanderberg, 1979]) at least once in the week prior to assays. B. divergens parasites were maintained and assayed in mixed stages without synchronization.
as §2, with “We carried out dose-response assays in 384-well plates (40 µl assay volume) for measurement with SYBR-Green I dye ([Mandt et al., 2019]), with test compounds pre-printed into wells via use of a D300 Digital Dispenser (Hewlett-Packard). Ring-stage” for “Ring-stage”

[10] = experimental logP ref https://go.drugbank.com/drugs/DB08865; cited from earlier work
[11] = tested on: H2228; parameters: method as in PMID 30333870; settings: cellular proliferation ref PMID 30333870; read-out: Micromolar IC50 (H2228); cited from earlier work
[12] = tested on: P. falciparum (3D7); assay: Assay for inhibition of parasite proliferation via RBC-targeting (transient exposure of RBCs, wash, then infection); type: cell-based, Plasmodium falciparum; settings: transient vs continued exposure; dose-response format where stated, n=3
Description: All plates were frozen for storage before assay. For assay, duplicate plates were preincubated with donor O+ RBCs at 2% hematocrit at 37°C in 50µL for 4-5 hours. Following preincubation, one but not the other plate in each pair was washed 4X in complete RPMI to dilute inhibitor. We transferred RBCs from both washed and unwashed plates to black, clear bottom 96-well plates (Corning Cat. No. 3904) and supplemented these suspensions with MACS-purified P. falciparum (3D7) schizonts for a starting parasitemia of 0.1% - 0.25% at 1% hematocrit. Following 72h incubation in standard culture conditions, samples were processed for SYBR-Green I signal ([Mandt et al., 2019]). […] To identify host-targeting compounds, we compared DMSO-treated to inhibitor-treated samples (Students t-test, paired). We carried out the assay with 1 µM mefloquine (Sigma-Aldrich Cat. No. M2319) as a control for reversible inhibition. All assays were conducted in biological triplicate, with each experiment utilizing different donor RBCs. For select compounds, we carried out this same assay in a dose-response series (n=3 experiments). Following normalization to DMSO-controls, we assessed inhibitor activity following transient exposure of RBCs by Two-Way ANOVA tests for repeated measures (Graphpad Prism v9): high P values indicate support for the null hypothesis that dose-dependent inhibition is not modulated by dilution after exposure, consistent with a direct inhibitory effect of the compounds on RBCs persisting after transient exposure.

[13] = tested on: P. falciparum 3D7; assay: Co-administration with established antimalarials, IC50 shift; type: cell-based, Plasmodium falciparum; settings: P<0.05
From the text: Our experimental compound set is weighted toward kinase inhibitors, reflecting the high degree of small molecule development in this target space.

[14] = tested on: uninfected RBCs; settings: 5x P. falciparum 3D7-IC50; 24, 48, 72h
From the text: as §3

[15] = tested on: Plasmodium berghei; parameters: method as in Wu et al., 2017; settings: mouse model of severe malaria with Plasmodium berghei ref Wu et al., 2017; cited from earlier work
[16] = tested on: MEF; parameters: method as in PMID 29336889; settings: cellular proliferation ref PMID 29336889; read-out: Micromolar IC50 (MEF); cited from earlier work
[17] = tested on: SW1990; parameters: method as in PMID 27487486; settings: cellular proliferation ref PMID 27487486; read-out: Micromolar IC50 (SW1990); cited from earlier work
[18] = 3D7, 72h, ring-stage, n=3 experiments (or 2 where indicated with *)
[19] = DD2, 72h, ring-stage, n=3 experiments (or 2 where indicated with *)
[20] = 72h, asynchronous, n=3 experiments (or 2 where indicated with *)
[21] = uninfected RBCs (red blood cells), 1% hematocrit
[22] = 24h, 5x P. falciparum 3D7-IC50, % of RBCs, mean of 2 experiments
[23] = 5x P. falciparum 3D7-IC50, % of RBCs, mean of 2 experiments
[24] = 72h, 5x P. falciparum 3D7-IC50, % of RBCs, mean of 2 experiments

## Cc1ccc(NC(=O)c2ccc(CN3CC[C@H](N(C)C)C3)c(C(F)(F)F)c2)cc1Nc1nccc(-c2cncnc2)n1 [Bafetinib]
[1]; [18]
  IC50: 2 µM
[2]; [19]
  IC50: 3 µM
[3]
  IC50: 2 µM
[4]; [20]
  IC50: 12 µM
[5]
  IC50: 0.0011 µM
[6]
  IC50: 0.0022 µM
[7]; [21]
  hemolysis at 24 h, 5 x P. falciparum 3D7-IC50: 1%
  hemolysis at 48 h, 5 x P. falciparum 3D7-IC50: 6%
  hemolysis at 72 h, 5 x P. falciparum 3D7-IC50: 4%
[8]; [22]
  Phosphatidylserine exposure (%) 24h: 2%
[8]; [23]
  Phosphatidylserine exposure (%) 48h: 2%
[8]; [24]
  Phosphatidylserine exposure (%) 72h: 4%

## C[C@@H](Oc1cc(-c2cnn(C3CCNCC3)c2)cnc1N)c1c(Cl)ccc(F)c1Cl [Crizotinib]
[1]; 3D7, 72 h
  IC50: 0.7 µM
[2]; DD2, 72 h
  IC50: 0.14 µM
[3]
  IC50: 0.8 µM
[4]
  antiparasitic activity in vitro, in words, B. divergens: single-digit micromolar activity
[4]; 72 h
  IC50: 3 µM
[9]
  antiparasitic activity in vitro, in words, Plasmodium spp.: potent submicromolar activity
[10]
  logP (octanol-water partition coefficient), experimental: Crizotinib [drawing 15] (450.3; 1.83^2)
[11]
  IC50: 0.311 µM
[7]
  hemolysis at 24 h, 5 x P. falciparum 3D7-IC50: 1%
  hemolysis at 48 h, 5 x P. falciparum 3D7-IC50: 9%
  hemolysis at 72 h, 5 x P. falciparum 3D7-IC50: 14%
[8]
  Phosphatidylserine exposure (%) 24h: 1%
  Phosphatidylserine exposure (%) 72h: 5%
[8]; [23]
  Phosphatidylserine exposure (%) 48h: 2%

## CC(=O)Nc1cccc(-n2c(=O)n(C3CC3)c(=O)c3c(Nc4ccc(I)cc4F)n(C)c(=O)c(C)c32)c1 [Trametinib]
[1]; [18]
  IC50: 0.09 µM
[2]; [19]
  IC50: 0.11 µM
[3]
  IC50: 0.1 µM
[4]
  antiparasitic activity in vitro, in words, B. divergens: single-digit micromolar activity
  fold higher doses required for 50% inhibition of B. divergens than of the Plasmodium spp. lines: > 30 fold
[4]; [20]
  IC50: 6 µM
[9]
  antiparasitic activity in vitro, in words, Plasmodium spp.: potent submicromolar activity
  IC50: ~0.1 µM
[12]
  inhibitory activity following transient exposure of RBCs, in words: does not persist beyond transient exposure
[13]
  reduction in the IC50 of chloroquine in combination with fixed, sublethal dose of test compound: ≤ 2 fold
  reduction in the IC50 of mefloquine in combination with fixed, sublethal dose of test compound: ≤ 2 fold
[14]
  hemolysis of RBCs, in words: similarly low levels
[15]
  survival of infected mice: improve survival of infected mice
[16]
  IC50: 0.0016 to 0.0048 µM
[7]; [21]
  hemolysis at 24 h, 5 x P. falciparum 3D7-IC50: -1%
  hemolysis at 48 h, 5 x P. falciparum 3D7-IC50: 7%
  hemolysis at 72 h, 5 x P. falciparum 3D7-IC50: 15%
[8]; 5x P. falciparum 3D7-IC50, 24, 48, 72h
  PS exposure on RBCs, in words: similarly low levels
[8]; [22]
  Phosphatidylserine exposure (%) 24h: 2%
[8]; [23]
  Phosphatidylserine exposure (%) 48h: 2%
[8]; [24]
  Phosphatidylserine exposure (%) 72h: 5%

## CCCC[C@@H](C=O)NC(=O)[C@H](CC(C)C)NC(=O)OCc1ccccc1 [Calpeptin]
[1]; 3D7, 72 h
  IC50: 1 µM
[2]; DD2, 72 h
  IC50: 1.3 µM
[3]
  IC50: 0.9 µM
[4]
  fold higher doses required for 50% inhibition of B. divergens than of the Plasmodium spp. lines: > 30 fold
[4]; 72 h
  IC50: 40 µM
[9]
  IC50: ~1 µM
[17]
  IC50: 74.2 µM
[7]; [21]
  hemolysis at 24 h, 5 x P. falciparum 3D7-IC50: 0%
  hemolysis at 48 h, 5 x P. falciparum 3D7-IC50: 8%
  hemolysis at 72 h, 5 x P. falciparum 3D7-IC50: 17%
[8]; [22]
  Phosphatidylserine exposure (%) 24h: 2%
[8]; [23]
  Phosphatidylserine exposure (%) 48h: 2%
[8]; [24]
  Phosphatidylserine exposure (%) 72h: 5%
